Assay results published in US7745473B2, “Indole derivative for alkylating specific base sequence of DNA and alkylating agent and drug containing the derivative” (Kyoto University, priority 2004, dated 2010).
“Also recorded” adds a separate entry of the source.

Legend:
[1] = Stability under acidic and alkaline conditions by HPLC; format: physicochemical
Procedure: Analysis of stability under acidic and alkaline conditions by HPLC was performed by the following process: A reaction solution containing compound (3-1) or (4-1) (100 μM) in a total volume of 10 μL of an aqueous solution of 5% HCl (pH=1, DMF:H2O=1:9) or an aqueous solution of 5% NaHCO3 (pH=9, DMF:H2O=1:9) was charged into a microfuge tube (Eppendorf) and left standing at 37° C. After 30 minutes, 2 hours, and 24 hours, analysis of compound (4-1) (16.8 min) and compound (3-1) (15.1 min) was performed by HPLC (linear gradient of acetonitrile 0-100% in 50 mM ammonium formate, 20 min, flow rate: 1.0 mL/min, 254 nm).
The Py-Im polyamide containing the indole linker was evaluated for stability by product analysis on HPLC using compounds (4-1) and (3-1). […] Compound (4-1) was converted into compound (3-1) (30 minutes: 50%, 2 hours: 78%) in the alkaline aqueous NaHCO3 solution (pH=9) (left standing at 37° C. for 24 hours). […] Compound (3-1) was readily converted into compound (4-1) (30 minutes: 96%) in the acidic aqueous HCl solution (pH=1) (37° C.).

[2] = tested on: long-chain DNA (pUC-II′; SEQ ID NO:7); experiment: DNA alkylation of 5′-Texas Red-labeled long-chain DNA, analysed by polyacrylamide gel electrophoresis; format: biochemical; settings: 23° C., 8 hours, FIG. 1
Procedure: A 5′-Texas Red-labeled DNA fragment (450 bp) (pUC-II′, SEQ ID NO:7) was prepared by a PCR method using the 5′-Texas Red-labeled 19-base-pair primer (pUC18 forward, 328-345; SEQ ID NO:6) and the 21-base-pair primer (pUC18 reverse, 1861-1881; SEQ ID NO:5), puc18 being used as a template.
The reaction of compounds (3-1) and (4-1) prepared in the above-described Synthesis Examples with DNA was studied using the long-chain DNA (pUC-II′; SEQ ID NO:7). An alkylation reaction was performed at 23° C. for 8 hours. The sequence alkylated was analyzed by polyacrylic gel electrophoresis for sequence determination. […] This sequence specificity can be explained by a model in which each compound dimerizes in the DNA minor groove to recognize the base sequence.
Analysis by polyacrylamide gel electrophoresis was performed by the following process: A standard reaction solution containing the 5′-Texas Red-end-labeled DNA fragment (10 nM), DMF (10% (v/v)), and an agent having a concentration described above in a sodium phosphate buffer (5 mM, total volume: 10 μL, pH=7.0) was charged into a microfuge tube (Eppendorf) and left standing at 23° C. for 8 hours. After completion of the reaction, the reaction was quenched by the addition of calf thymus DNA (1 mM, 1 μL). The resulting mixture was shaken at 90° C. for 5 minutes. […]

[3] = tested on: long-chain DNA (pUC-II; SEQ ID NO:4, pUC-I′; SEQ ID NO:1); experiment: as above; format: biochemical
Procedure: A 5′-Texas Red-labeled DNA fragment (450 bp) (pUC-I′, SEQ ID NO:1) was prepared by a PCR method using a 5′-Texas Red-labeled 20-base-pair primer, i.e., 5′-TexRed-[…]-3′ (pUC18 forward, 780-799; SEQ ID NO:2), and a 20-base-pair primer, i.e., 5′-[…]-3′ (pUC18 reverse, 1459-1478; SEQ ID NO:3), puc18 being used as a template. The DNA fragment was in a double-stranded state including a complementary strand (the following fragments were in the same state).
A 5′-Texas Red-labeled DNA fragment (450 bp) (pUC-II, SEQ ID NO:4) was prepared by a PCR method using a 5′-Texas Red-labeled 21-base-pair primer, i.e., 5′-TexRed-[…]-3′ (pUC18 reverse, 1861-1881; SEQ ID NO:5), and a 19-base-pair primer, i.e., 5-TGTAAAACGACGGCCAGTG-3′ (pUC18 forward, 328-345; SEQ ID NO:6), puc18 being used as a template.
(§1) Analysis by polyacrylamide gel electrophoresis was performed by the following process: A standard reaction solution containing the 5′-Texas Red-end-labeled DNA fragment (10 nM), DMF (10% (v/v)), and an agent having a concentration described above in a sodium phosphate buffer (5 mM, total volume: 10 μL, pH=7.0) was charged into a microfuge tube (Eppendorf) and left standing at 23° C. for 8 hours. After completion of the reaction, the reaction was quenched by the addition of calf thymus DNA (1 mM, 1 μL). The resulting mixture was shaken at 90° C. for 5 minutes. The DNA obtained by centrifugation under reduced pressure was dissolved by the addition of 8 μl, of loading dye (fushin red solution in DMF), shaken at 94° C. for 20 minutes, and then immediately cooled to 0° C. A 2-μL aliquot was separated electrophoretically on a 6% denaturing polyacrylamide gel using a Hitachi 5500-S DNA sequencer. The following tests were conducted in a similar way.
The reaction of compounds (3-2) and (3-3) prepared in the above-described Synthesis Examples with DNA was studied using the long-chain DNA (pUC-II; SEQ ID NO:4, pUC-I′; SEQ ID NO:1). An alkylation reaction was performed for 8 hours. The sequence alkylated was analyzed by polyacrylic gel electrophoresis for sequence determination. […] However, the difference in sequence recognition ability was observed. […] From the stand point of the sequence recognition ability, the molecular design of compound (3-2) was excellent.

[4] = tested on: long-chain DNA (λ-F10906; SEQ ID NO:8); experiment: as above; format: biochemical; settings: λ-F10906, nanomolar concentrations, FIG. 4
Procedure: A 5′-Texas Red-labeled DNA fragment (537 bp) (λ-F10906; SEQ ID NO:8) was prepared by a PCR method using a 5′-Texas Red-labeled 23-base-pair primer, i.e., 5′-TexRed-[…]-3′ (λ-DNA forward, 10960-10982; SEQ ID NO:9), and a 20-base-pair primer, i.e., 5′-[…]-3′ (λ-DNA reverse, 37007-37026; SEQ ID NO:10), λ-DNA being used as a template.
as §1
The reaction of compounds (3-2), (3-4), and (3-5) with DNA was studied using the long-chain DNA (λ-F10906; SEQ ID NO:8). The DNA-alkylating ability of each compound was evaluated.

[5] = tested on: human ER(+) breast cancer Br-10; experiment: Antitumor activity against transplantable human breast cancer in nude mice; format: in vivo, BALB/cA-nu/nu mice; settings: for T/C (%): treated group / control group ×100
Procedure: Antitumor activity of compound (4-2) against transplantable human ER(+) breast cancer Br-10 in nude mice was studied. Human ER(+) breast cancer Br-10 was subcutaneously transplanted in dorsal portions of 8-week-old BALB/cA-nu/nu mice through a trocar. Injection of 0.1 mL of EP Hormone Depot was intramuscularly administered in Br-10-transplant mice simultaneously with the transplantation. When the tumor volume reached about 100 mm^3, the mice were divided into 5 mice/group, and then the administration started.
Compound (4-2) was dissolved in ethanol, diluted with physiological saline, and subcutaneously injected in divided doses into 3 or 4 portions near the tumor once a day and 3 times every 3 days. The dose of compound (4-2) was 50 mg/kg (about 1 mg/mouse) in a volume of 0.05 mL/10 g. Physiological saline was subcutaneously injected in the control group. The length of the major axis (L) and the length of the minor axis (W) were measured every 3 days. The tumor volume was calculated with the following formula: Tumor volume (mm^3)=L(mm)×W^2(mm^2)/2 Comparison of the tumor volume between the compound (4-2) treated group and the control group was performed. […] Values shown in the table show relative estimation of each group when the tumor volume after 1 day in each group is defined as 1.0; and relative estimation calculated with (tumor volume of compound (4-2) treated group: T)/(tumor volume of control group: C)×100%.

[6] = 8 hours, pUC-II and pUC-I′, FIG. 2

With CC(=O)Nc1cn(C)c(C(=O)Nc2cn(C)c(C(=O)Nc3ccc4[nH]c(C(=O)N5CC6CC67C5=CC(=O)c5ccccc57)cc4c3)n2)n1 (centres unmarked) [compound (3-1), AcImIm-Indole-CBI] the “conversion into compound (4-1)” value ([1]; acidic aqueous HCl solution pH=1, 37° C., 30 minutes) was 96% and the “sequence-specific DNA alkylation” value [2] was “selectively alkylated adenine located at site 1 (5′-CGGCCA-3′) at nanomolar concentrations”.

In the case of CC(=O)Nc1cn(C)c(C(=O)Nc2cn(C)c(C(=O)Nc3cc(C(=O)NCCCC(=O)Nc4cn(C)c(C(=O)Nc5ccc6[nH]c(C(=O)N7CC8CC89C7=CC(=O)c7ccccc79)cc6c5)n4)n(C)c3)n2)n1 (centres unmarked) [compound (3-3), AcImImPy-γ-Im-Indole-CBI], the “alkylated sites (sequence recognition ability)” value [3, 6] is reported as “alkylation of site 4 (5′-AGCCA-3′), which was a match sequence, was observed; also recorded: single-base-pair mismatch sequences in site 1 (5′-AGCTA-3′), site 2 (5′-AGTCA-3′), site 5 (5′-TACCA-3′), and the like were also observed”, the “efficiency of DNA alkylation” value [3, 6] is reported as “efficient DNA alkylation comparable with that of a known Py-Im polyamide having a vinyl linker was observed at nanomolar concentrations” and the “alkylation of guanine at match site 5′-TGCCG-3′” value ([3]; pUC-I′ (SEQ ID NO:1)) is reported as “no alkylation of guanine was observed”.

In the case of CC(=O)Nc1cn(C)c(C(=O)Nc2cn(C)c(C(=O)Nc3cc(C(=O)Nc4cc(C(=O)NCCCC(=O)Nc5cc(C(=O)Nc6cc(C(=O)Nc7ccc8[nH]c(C(=O)N9CC%10CC%10%11C9=CC(=O)c9ccccc9%11)cc8c7)n(C)c6)n(C)c5)n(C)c4)n(C)c3)n2)n1 (centres unmarked) [compound (3-4), AcImImPyPy-γ-PyPy-Indole-CBI], the “sequence-specific DNA alkylation, alkylated sites” value [4] is reported as “Sequence-specific DNA alkylation (site 6: 5′-AATCCA-3′, site 7: 5′-TAACCA-3′)”.

In the case of CC(=O)Nc1cn(C)c(C(=O)Nc2cc(C(=O)Nc3cc(C(=O)Nc4cc(C(=O)NCCCC(=O)Nc5cn(C)c(C(=O)Nc6cc(C(=O)Nc7ccc8[nH]c(C(=O)N9CC%10CC%10%11C9=CC(=O)c9ccccc9%11)cc8c7)n(C)c6)n5)n(C)c4)n(C)c3)n(C)c2)n1 (centres unmarked) [compound (3-5), AcImPyPyPy-γ-ImPy-Indole-CBI], the “sequence-specific DNA alkylation, alkylated sites” value [4] is reported as “alkylation of an only mismatch sequence (site 1: 5′-TGCTCA-3′) was observed”.

With CC(=O)Nc1cn(C)c(C(=O)Nc2cn(C)c(C(=O)Nc3ccc4[nH]c(C(=O)N5CC(CCl)c6c5cc(O)c5ccccc65)cc4c3)n2)n1 (centres unmarked) [compound (4-1), AcImIm-Indole-seco-CBI] the “conversion into compound (3-1)” value ([1]; alkaline aqueous NaHCO3 solution pH=9, 37° C., 30 minutes) was 50%, the “conversion into compound (3-1)” value ([1]; alkaline aqueous NaHCO3 solution pH=9, 37° C., 2 hours) was 78% and the “formation of other hydrolysates” value ([1]; alkaline aqueous NaHCO3 solution pH=9, 37° C., 24 hours) was “No other hydrolysates were formed”. The “hydrolysis in acidic aqueous HCl solution” value ([1]; pH=1, 37° C., 24 hours) was “not hydrolyzed at all” and the “sequence-specific DNA alkylation” value [2] was “selectively alkylated adenine located at site 1 (5′-CGGCCA-3′) at nanomolar concentrations”.

For CC(=O)Nc1cn(C)c(C(=O)Nc2cn(C)c(C(=O)Nc3cc(C(=O)Nc4cc(C(=O)NCCCC(=O)Nc5cn(C)c(C(=O)Nc6cc(C(=O)Nc7ccc8[nH]c(C(=O)N9CC(CCl)c%10c9cc(O)c9ccccc%109)cc8c7)n(C)c6)n5)n(C)c4)n(C)c3)n2)n1 (centres unmarked) [compound (4-2), AcImImPyPy-γ-ImPy-Indole-seco-CBI], the “suppression of tumor growth” value ([5]; 50 mg/kg subcutaneous near the tumor, Br-10 in nude mice) was “suppression of tumor growth was observed after the first administration”, the “toxicity (weight loss of mice and the like)” value ([5]; 50 mg/kg subcutaneous, nude mice) was “toxicity that causes the weight loss of mice and the like was not observed” and the “relative tumor volume (after 1 day = 1.0)” value (“relative tumor volume” for short) ([5]; after 1 day, 50 mg/kg subcutaneous near the tumor) was 1.0. For the same compound, the “T/C (%)” value ([5]; after 1 day) was 100%, the “relative tumor volume” value ([5]; after 4 days, 50 mg/kg subcutaneous near the tumor) was 1.1 and the “T/C (%)” value ([5]; after 4 days) was 78.6%. For the same compound, the “relative tumor volume” value ([5]; after 7 days, 50 mg/kg subcutaneous near the tumor) was 1.4, the “T/C (%)” value ([5]; after 7 days) was 82.4% and the “relative tumor volume” value ([5]; after 10 days, 50 mg/kg subcutaneous near the tumor) was 1.4. For the same compound, the “T/C (%)” value ([5]; after 10 days) was 66.7%, the “relative tumor volume” value ([5]; after 13 days, 50 mg/kg subcutaneous near the tumor) was 1.5 and the “T/C (%)” value ([5]; after 13 days) was 55.6%. For the same compound, the “relative tumor volume” value ([5]; after 16 days, 50 mg/kg subcutaneous near the tumor) was 2.0 and the “T/C (%)” value ([5]; after 16 days) was 64.5%.
